Here are results for 26 molecules from patent publication US20230416262A1, “TRPML MODULATORS” (Casma Therapeutics, Inc., priority 2020, published 2023).

In this assay the test system is THP-1 cells. Description: Lamp1 lysosomal exocytosis assay. It counts as cell-based. The following applies: Homo sapiens, 55 min, 55 min incubation, top dose 20 μM. As for the experimental part: For the Lamp1 lysosomal exocytosis assay, a human monocytic suspension cell line (THP-1) was used. Cells in culture should be used between a density of […] and 1.2e6/mL on the day of the assay. For each 96-well assay plate to be used, pellet 11e6 THP-1 cells at 330×g for 5 min in a 50 mL conical tube, aspirate media and resuspend in 22 mLs of RPMI 1640/10% FBS media for a final cell concentration of 5e5/mL. Prior to addition of cells to the assay plate, perform a 7 pt dilution curve using a top dose of compound at 2 mM and use a 3-fold serial dilution, the 8th point is DMSO only. Final top dose of compound in the assay was 20 μM. 2 μL of each serial dilution was transferred to a new 96-well v-bottom assay plate. 198 μL of cells (1e5 total cells/well) was prepared as above in each well of the assay plate and incubated at 37° C./5% CO2/95% RH for 55 min. After the 55 min incubation, cells were pelleted for 5 min at 4 C at 400×g in a tabletop centrifuge. The media was separated from the cell pellets in the plate. The pellets were washed using 200 μL ice cold buffer (PBS Ca^++/Mg^++ containing 2% final BSA and 80 μM final Dynasore). Cells were pelleted again at 400×g-5 min in a 4° C. tabletop centrifuge. Buffer was separated from cells. Each well was suspended in 75 uL Lamp1-PE antibody buffer (PBS Ca^++/Mg^++ containing 2% final BSA with 80 uM final Dynasore and 1:800 final dilution of Lamp 1-PE labeled antibody). After a 45 min antibody incubation on ice, 25 μL of sytox green was added (I drop/mL buffer), and each well was mixed and incubated for an additional 15 min on ice. After the 15 min sytox green incubation, 100 μL of ice-cold buffer (PBS Ca^++/Mg^++ containing 2% final BSA and 80 uM final Dynasore) was added and cells were pelleted for 5 min at 400×g. The buffer was removed and each sample was resuspended in 100 uL of ice-cold buffer (PBS Ca^++/Mg^++ containing 2% final BSA and 80 μM final Dynasore). FACs gating strategy: FACS analyze for sytox green (A488) and Lamp1-PE (DsRed). First gate against FSC-A/SSC-A to find non-fragmented or ‘live’ THP-1 cells. Next gate against FITC-A/FSC-A to omit sytox green positive cells. Then gate for FSC-A/FSC-H to remove any doublet cells. The last gate was a histogram for PE. The statistics for ‘count’ and ‘geometric mean fluorescence intensity’ (gWFI) for PE were repoted on the last gate.
Compounds having an activity designated as “++++” provided an exocytosis readout of ≤0.50 μM; compounds having an activity designated as “+++” provided an exocytosis readout of 0.51-1.00 μM; compounds having an activity designated as “++” provided an exocytosis readout of 1.01-5.00 μM; and compounds having an activity designated as “+” provided an exocytosis readout of ≥5.01 μM

The structures appear in SMILES notation.

A word on the EC50: it is the concentration that produces a half-maximal response. Low values mean greater potency, high ones weaker potency. The molecule `CCn1ccc(COC(=O)N2CCC3(CC2)CN(S(=O)(=O)c2ccc(C(F)F)cc2)c2ccccc23)n1` [Compound I-177, (1-ethyl-1H-pyrazol-3-yl)methyl 1-((4-(difluoromethyl)phenyl)sulfonyl)spiro[indoline-3,4′-piperidine]-1′-carboxylate] showed a concentration for a half-maximal effect (EC50) of 0.51 to 1 µM.
For `O=C(NCc1ccccc1)N1CCC2(CC1)CN(S(=O)(=O)c1ccc(C(F)F)cc1)c1ccccc12` [Compound I-179, N-benzyl-1-((4-(difluoromethyl)phenyl)sulfonyl)spiro[indoline-3,4′-piperidine]-1′-carboxamide] the value was no less than 5.01 µM.
`O=C(OCc1ccccc1)N1CCC2(CC1)CN(S(=O)(=O)c1ccc3c(c1)COC3)c1ccccc12` [Compound I-183, benzyl 1-((1,3-dihydroisobenzofuran-5-yl)sulfonyl)spiro[indoline-3,4′-piperidine]-1′-carboxylate] yielded an EC50 of no more than 0.5 µM.
Regarding `O=C(OCc1ccccc1)N1CCC2(CC1)CN(C(=O)c1ccc(C(F)F)cc1)c1ccccc12` [Compound I-185, benzyl 1-(4-(difluoromethyl)benzoyl)spiro[indoline-3,4′-piperidine]-1′-carboxylate], the EC50 was no less than 5.01 µM.
Consider `CC(C)NC(=O)N1CCC2(CC1)CN(S(=O)(=O)c1ccc(C(F)F)cc1)c1ccccc12` [Compound I-192, 1-((4-(difluoromethyl)phenyl)sulfonyl)-N-isopropylspiro[indoline-3,4′-piperidine]-1′-carboxamide], for which the EC50 was no less than 5.01 µM.
Regarding `O=C(NCC1CC1)N1CCC2(CC1)CN(S(=O)(=O)c1ccc(C(F)F)cc1)c1ccccc12` [Compound I-193, N-(cyclopropylmethyl)-1-((4-(difluoromethyl)phenyl)sulfonyl)spiro[indoline-3,4′-piperidine]-1′-carboxamide], the EC50 is no less than 5.01 µM.
The figure for `O=C(NCC(F)F)N1CCC2(CC1)CN(S(=O)(=O)c1ccc(C(F)F)cc1)c1ccccc12` [Compound I-194, N-(2,2-difluoroethyl)-1-((4-(difluoromethyl)phenyl)sulfonyl)spiro[indoline-3,4′-piperidine]-1′-carboxamide] is no less than 5.01 µM.
`O=C(NC1CCOC1)N1CCC2(CC1)CN(S(=O)(=O)c1ccc(C(F)F)cc1)c1ccccc12` (centres unmarked) [Compound I-195, 1-((4-(difluoromethyl)phenyl)sulfonyl)-N-(tetrahydrofuran-3-yl)spiro[indoline-3,4′-piperidine]-1′-carboxamide] had an EC50 of no less than 5.01 µM.
`CCOCCNC(=O)N1CCC2(CC1)CN(S(=O)(=O)c1ccc(C(F)F)cc1)c1ccccc12` [Compound I-196, 1-((4-(difluoromethyl)phenyl)sulfonyl)-N-(2-ethoxyethyl)spiro[indoline-3,4′-piperidine]-1′-carboxamide] gave an EC50 of no less than 5.01 µM.
As to `O=C(Nc1ccccc1)N1CCC2(CC1)CN(S(=O)(=O)c1ccc(C(F)F)cc1)c1ccccc12` [Compound I-197, 1-((4-(difluoromethyl)phenyl)sulfonyl)-N-phenylspiro[indoline-3,4′-piperidine]-1′-carboxamide], the half-maximal effective concentration (EC50) is no less than 5.01 µM.
`O=C(Nc1cccnc1)N1CCC2(CC1)CN(S(=O)(=O)c1ccc(C(F)F)cc1)c1ccccc12` [Compound I-198, 1-((4-(difluoromethyl)phenyl)sulfonyl)-N-(pyridin-3-yl)spiro[indoline-3,4′-piperidine]-1′-carboxamide] gave an EC50 of no less than 5.01 µM.
The figure for `Cn1cccc1NC(=O)N1CCC2(CC1)CN(S(=O)(=O)c1ccc(C(F)F)cc1)c1ccccc12` [Compound I-199, 1-((4-(difluoromethyl)phenyl)sulfonyl)-N-(1-methyl-1H-pyrrol-2-yl)spiro[indoline-3,4′-piperidine]-1′-carboxamide] is no less than 5.01 µM; for `Cn1cc(NC(=O)N2CCC3(CC2)CN(S(=O)(=O)c2ccc(C(F)F)cc2)c2ccccc23)cn1` [Compound I-200, 1-((4-(difluoromethyl)phenyl)sulfonyl)-N-(1-methyl-1H-pyrazol-4-yl)spiro[indoline-3,4′-piperidine]-1′-carboxamide] it is no less than 5.01 µM.
The figure for `O=C(NCC(F)(F)F)N1CCC2(CC1)CN(S(=O)(=O)c1ccc(C(F)F)cc1)c1ccccc12` [Compound I-201, 1-((4-(difluoromethyl)phenyl)sulfonyl)-N-(2,2,2-trifluoroethyl)spiro[indoline-3,4′-piperidine]-1′-carboxamide] is no less than 5.01 µM.
`O=C(Nc1cnsc1)N1CCC2(CC1)CN(S(=O)(=O)c1ccc(C(F)F)cc1)c1ccccc12` [Compound I-202, 1-((4-(difluoromethyl)phenyl)sulfonyl)-N-(isothiazol-4-yl)spiro[indoline-3,4′-piperidine]-1′-carboxamide]: the half-maximal effective concentration (EC50) was no less than 5.01 µM.
For `O=C(NCC1CCCO1)N1CCC2(CC1)CN(S(=O)(=O)c1ccc(C(F)F)cc1)c1ccccc12` (centres unmarked) [Compound I-203, 1-((4-(difluoromethyl)phenyl)sulfonyl)-N-((tetrahydrofuran-2-yl)methyl)spiro[indoline-3,4′-piperidine]-1′-carboxamide], the EC50 was no less than 5.01 µM.
`O=C(NCC1CCOC1)N1CCC2(CC1)CN(S(=O)(=O)c1ccc(C(F)F)cc1)c1ccccc12` (centres unmarked) [Compound I-204] yielded an EC50 of no less than 5.01 µM.
The figure for `O=C(NC1CCOCC1)N1CCC2(CC1)CN(S(=O)(=O)c1ccc(C(F)F)cc1)c1ccccc12` [Compound I-205, 1-((4-(difluoromethyl)phenyl)sulfonyl)-N-(tetrahydro-2H-pyran-4-yl)spiro[indoline-3,4′-piperidine]-1′-carboxamide] is no less than 5.01 µM.
`O=C(NC1CC(F)(F)C1)N1CCC2(CC1)CN(S(=O)(=O)c1ccc(C(F)F)cc1)c1ccccc12` [Compound I-206, N-(3,3-difluorocyclobutyl)-1-((4-(difluoromethyl)phenyl)sulfonyl)spiro[indoline-3,4′-piperidine]-1′-carboxamide] registered a concentration for a half-maximal effect (EC50) of no less than 5.01 µM.
`CCn1cc(NC(=O)N2CCC3(CC2)CN(S(=O)(=O)c2ccc(C(F)F)cc2)c2ccccc23)cn1` [Compound I-207, 1-((4-(difluoromethyl)phenyl)sulfonyl)-N-(1-ethyl-1H-pyrazol-4-yl)spiro[indoline-3,4′-piperidine]-1′-carboxamide]: the concentration giving a half-maximal response (EC50) is no less than 5.01 µM.
The figure for `O=C(NCCn1cccn1)N1CCC2(CC1)CN(S(=O)(=O)c1ccc(C(F)F)cc1)c1ccccc12` [Compound I-208, N-(2-(1H-pyrazol-1-yl)ethyl)-1-((4-(difluoromethyl)phenyl)sulfonyl)spiro[indoline-3,4′-piperidine]-1′-carboxamide] is no less than 5.01 µM; for `Cn1cc(CNC(=O)N2CCC3(CC2)CN(S(=O)(=O)c2ccc(C(F)F)cc2)c2ccccc23)cn1` [Compound I-209, 1-((4-(difluoromethyl)phenyl)sulfonyl)-N-((1-methyl-1H-pyrazol-4-yl)methyl)spiro[indoline-3,4′-piperidine]-1′-carboxamide] it is no less than 5.01 µM.
For `O=C(Nc1cncc(F)c1)N1CCC2(CC1)CN(S(=O)(=O)c1ccc(C(F)F)cc1)c1ccccc12` [Compound I-210, 1-((4-(difluoromethyl)phenyl)sulfonyl)-N-(5-fluoropyridin-3-yl)spiro[indoline-3,4′-piperidine]-1′-carboxamide] the value was no less than 5.01 µM; for `Cc1cc(CNC(=O)N2CCC3(CC2)CN(S(=O)(=O)c2ccc(C(F)F)cc2)c2ccccc23)no1` [Compound I-211, 1-((4-(difluoromethyl)phenyl)sulfonyl)-N-((5-methylisoxazol-3-yl)methyl)spiro[indoline-3,4′-piperidine]-1′-carboxamide], no less than 5.01 µM; for `Cc1cc(CNC(=O)N2CCC3(CC2)CN(S(=O)(=O)c2ccc(C(F)F)cc2)c2ccccc23)on1` [Compound I-212], no less than 5.01 µM.
The figure for `Cc1noc(C)c1NC(=O)N1CCC2(CC1)CN(S(=O)(=O)c1ccc(C(F)F)cc1)c1ccccc12` [Compound I-213, 1-((4-(difluoromethyl)phenyl)sulfonyl)-N-(3,5-dimethylisoxazol-4-yl)spiro[indoline-3,4′-piperidine]-1′-carboxamide] is no less than 5.01 µM.
